Assay results as given in publication PMC5104769, “Concentration-Dependent Dual Mode of Zn Action at Serotonin 5-HT1A Receptors: In Vitro and In Vivo Studies” (Molecular neurobiology, 2015).

Tests used:
Sprague Dawley rats [1] = assay: Forced swim test (FST) in rats; type: in vivo, rat
Experimental: The test was carried out according to the method described previously [10]. On day one of the experiment, the animals were individually placed in plexiglass cylinders (40 cm in height, 18 cm in diameter), containing 25 cm of water maintained at 24–25 °C for a 15-min habituation period. After the rats were removed from the water, they were again placed in their home cages. On the second day, the rats were again placed in the cylinders, and the total duration of immobility was measured for a 5-min test period. Zn (1 or 2 mg Zn/ kg, given as Zn hydroaspartate) and 8-OH-DPAT (0.1 or 0.3 mg/kg) were administered alone or jointly 30 min before the test. WAY-100635 (0.1 mg/kg) was administered 15 min before the Zn treatment.

Sprague Dawley rats [2] = assay: Lower lip retraction (LLR) in rats; type: in vivo, rat; conditions: for induction of LLR (in words): given alone: 8-OH-DPAT 1 mg/kg, Zn 2 and 5 mg/kg, WAY-100635 0.1 mg/kg
Experimental: The experiments were performed on male Albino Swiss mice (23-25 g) and Sprague Dawley rats (200-250 g) from Charles River, Germany as well as […]-flx-YFP mice from Jackson Labs, Bangor ME and the Hen lab, respectively. The animals were kept under standard laboratory conditions with respect to lighting (light phase 7:00-19:00) and temperature (19-21 °C). Food and water were freely available. Each experimental group consisted of eight to ten animals. All of the animals were experimentally naive and were used only once in each test. The experiments were performed during the light period (9:00-14:00 h). All of the procedures were conducted according to the guidelines of the National Institutes of Health Animal Care and Use Committee and were approved by the Ethics Committees of the Institute of Pharmacology, Polish Academy of Sciences in Krakow and the Animal Care Committee, University of Ottawa. […] Controls were treated with the appropriate diluent, which was indicated as VEH on the graphs and in the tables. LLR was assessed according to the method described by Berendsen et al., [20]. The rats were individually placed in cages (30×25×25 cm) and were scored three times, 15, 30 and 45 min after the administration of Zn as follows: 0=lower incisors not visible, 0.5=partly visible and 1=completely visible. Zn was administered at doses of 2 and 5 mg Zn/kg (given as Zn hydroaspartate, Farmapol, Poland). The maximum total score was 3/rat. In addition, the effects of Zn and WAY-100635 (0.1 mg/kg; […] Sigma) were tested.

Body temperature in mice = type: in vivo, mouse
Experimental: The experiments were performed on male Albino Swiss mice (23-25 g) and Sprague Dawley rats (200-250 g) from Charles River, Germany as well as […]-flx-YFP mice from Jackson Labs, Bangor ME and the Hen lab, respectively. The animals were kept under standard laboratory conditions with respect to lighting (light phase 7:00-19:00) and temperature (19-21 °C). Food and water were freely available. Each experimental group consisted of eight to ten animals. All of the animals were experimentally naive and were used only once in each test. The experiments were performed during the light period (9:00-14:00 h). All of the procedures were conducted according to the guidelines of the National Institutes of Health Animal Care and Use Committee and were approved by the Ethics Committees of the Institute of Pharmacology, Polish Academy of Sciences in Krakow and the Animal Care Committee, University of Ottawa. […] Controls were treated with the appropriate diluent, which was indicated as VEH on the graphs and in the tables. […] The results were expressed as a change in body temperature with respect to the basal body temperature, which was measured at the beginning of the experiments.

Body temperature in rats = type: in vivo, rat; conditions: 8-OH-DPAT 5 mg/kg, vs saline group
Experimental: The experiments were performed on male Albino Swiss mice (23–25 g) and Sprague Dawley rats (200–250 g) from Charles River, Germany as well as TPH2-Cre-ER^T2 x flx-5-HT1A-flx-YFP mice from Jackson Labs, Bangor ME and the Hen lab, respectively. The animals were kept under standard laboratory conditions with respect to lighting (light phase 7:00–19:00) and temperature (19–21 °C). Food and water were freely available. Each experimental group consisted of eight to ten animals. All of the animals were experimentally naive and were used only once in each test. The experiments were performed during the light period (9:00–14:00 h). All of the procedures were conducted according to the guidelines of the National Institutes of Health Animal Care and Use Committee and were approved by the Ethics Committees of the Institute of Pharmacology, Polish Academy of Sciences in Krakow and the Animal Care Committee, University of Ottawa. […]
The effects of Zn (2, 5, 7.5 and 11.5 mg Zn/kg for rats and 2 and 5 mg/kg for mice, given as a Zn hydroaspartate), 8-OH-DPAT (5 mg/kg) and WAY-100635 (0.1mg/kg) on rectal body temperature were recorded 30 and 60 min after their acute administration. The results were expressed as a change in body temperature with respect to the basal body temperature, which was measured at the beginning of the experiments.

Sprague Dawley rats [3] = assay: 5-HT behavioural syndrome (flat body posture, forepaw treading) in rats; type: in vivo, rat; conditions: VEH + 8-OH-DPAT 5 mg/kg
Experimental: The experiments were performed on male Albino Swiss mice (23–25 g) and Sprague Dawley rats (200–250 g) from Charles River, Germany as well as TPH2-Cre-ER^T2 x flx-5-HT1A-flx-YFP mice from Jackson Labs, Bangor ME and the Hen lab, respectively. The animals were kept under standard laboratory conditions with respect to lighting (light phase 7:00–19:00) and temperature (19–21 °C). Food and water were freely available. Each experimental group consisted of eight to ten animals. All of the animals were experimentally naive and were used only once in each test. The experiments were performed during the light period (9:00–14:00 h). All of the procedures were conducted according to the guidelines of the National Institutes of Health Animal Care and Use Committee and were approved by the Ethics Committees of the Institute of Pharmacology, Polish Academy of Sciences in Krakow and the Animal Care Committee, University of Ottawa.
Zn (all doses refer to mg Zn/kg) was given as either Zn hydroaspartate (Farmapol, Poland) or Zn chloride (Sigma-Aldrich) and was dissolved in 0.9 % NaCl and administered intraperitoneally (i.p.). 8-OH-DPAT and WAY-100635 were dissolved in aqua pro-injection and were administered subcutaneously (s.c.). Controls were treated with the appropriate diluent, which was indicated as VEH on the graphs and in the tables.
The experiments were conducted according to previously published procedure, with a modification to the ranked intensity scale. Briefly, the rats were individually placed in cages (30×25×25 cm) 5 min before tested compounds were injected. Forepaw treading (FT) and flat body posture (FBP) were scored using a ranked intensity scale, where 0=absent, 1=equivocal and 2=present. The Zn (2, 5, 7.5 and 11.5 mg Zn/kg, given as a Zn hydroaspartate)-induced behavioural syndrome was scored for each animal 3, 6, 9, 12 and 15 min after the Zn treatment. Each observation session lasted for 45 s. The maximum score, which was summed over 5 observation periods, was 10 for each symptom/rat. The effect of Zn on the behavioural syndrome induced by 8-OH-DPAT (5 mg/kg) was scored using the same scale. Zn was administered 60 min before 8-OH-DPAT, and the animals were scored 3, 6, 9, 12 and 15 min after the 8-OH-DPAT treatment.

[4] = molecular target: T1, human 5-HT1AR stably expressed in HEK293 cells (Homo sapiens, UniProt P08908); assay: Saturation binding of [3H]-8-OH-DPAT in the absence and presence of Zn; conditions: saturation binding
T1 construct: The full-length human 5HTR1A complementary DNA (cDNA); membranes prepared from the cells
T1 sequence (P08908 1-422): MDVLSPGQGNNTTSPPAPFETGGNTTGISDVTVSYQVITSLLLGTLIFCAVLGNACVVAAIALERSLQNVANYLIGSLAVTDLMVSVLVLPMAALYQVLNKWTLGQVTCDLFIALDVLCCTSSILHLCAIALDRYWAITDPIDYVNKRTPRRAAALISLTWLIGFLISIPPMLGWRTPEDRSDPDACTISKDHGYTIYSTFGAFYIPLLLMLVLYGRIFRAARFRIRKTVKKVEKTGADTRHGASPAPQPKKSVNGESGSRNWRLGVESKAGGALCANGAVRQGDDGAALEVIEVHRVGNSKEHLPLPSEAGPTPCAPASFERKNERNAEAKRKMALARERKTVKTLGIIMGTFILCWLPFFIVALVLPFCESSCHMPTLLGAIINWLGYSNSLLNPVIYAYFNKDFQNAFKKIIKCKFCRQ
Experimental: The full-length human 5HTR1A complementary DNA (cDNA), which was cloned into the mammalian expression vector pcDNA3.1(+), was obtained from the Missouri S&T cDNA Resource Center (www.cdna.org). The receptor cDNA was stably transfected into human embryonic kidney cells (HEK293, ATCC) with the use of Lipofectamine 2000 (Invitrogen).
Cell pellets were thawed and homogenized in 20 volumes of 50 mM Tris–HCl buffer (pH 7.7) containing 0.1 mM EDTA and 10 mM MgCl2, using an Ultra Turrax tissue homogenizer. The pellets were then centrifuged twice at 35,000g for 20 min at 4 °C, with incubation for 15 min at 37 °C in between centrifugations. Membranes were aliquoted in tubes. Membrane protein concentrations were determined using the Pierce™ Coomassie (Bradford) Protein Assay Kit, with bovine serum albumin (BSA) as a standard.
The incubation buffer consisted of 50 mM Tris–HCl (pH 7.7), 10 mM MgCl2, 10 mM pargyline and 0.1 % ascorbic acid. Radioligand binding assays were performed by incubating 30 μg of protein of the membrane suspension in 96-well microtitre plates for 60 min at room temperature with shaking, in a total volume of 200 μl. The binding reactions were stopped by filtration through GF/C Unifilter plates using a harvester (PerkinElmer). The plate filters were dried, and 20 μl of Ultima Gold MV (PerkinElmer) was added. Radioactivity was measured using a MicroBeta TriLux counter (PerkinElmer).
All experiments were performed in triplicate, and the results were obtained from at least three independent experiments. The data are expressed as the mean±S.D. (standard deviation). The experimental data were analysed using GraphPad Prism 5.1 for Windows (GraphPad Software, San Diego California USA, www.graphpad.com).

| SMILES | effect on Zn-induced decrease in immobility time (Sprague Dawley rats [1]; WAY-100635 0.1 mg/kg 15 min before Zn) | behaviour in the FST (Sprague Dawley rats [1]; WAY-100635 0.1 mg/kg given alone) | Mean LLR score (B) 8-OH-DPAT 1 mg/kg (Sprague Dawley rats [2]; WAY 100635 0.1 mg/kg 45 min before 8-OH-DPAT 1 mg/kg) | Mean LLR score (A) VEH (Sprague Dawley rats [2]; WAY 100635 0.1 mg/kg s.c. alone, max score 3/rat) | effect on LLR induced by 8-OH-DPAT (in words) (Sprague Dawley rats [2]; Zn 2 and 5 mg/kg or WAY-100635 0.1 mg/kg before 8-OH-DPAT 1 mg/kg) | induction of LLR (in words) (Sprague Dawley rats [2]) | effect of pretreatment on Zn-induced decrease in body temperature (Body temperature in mice; WAY-100635 0.1 mg/kg s.c. 15 min before Zn) | immobility time in the FST (Sprague Dawley rats [1]; 8-OH-DPAT 0.1 mg/kg) | immobility time in the FST (Sprague Dawley rats [1]; 8-OH-DPAT 0.3 mg/kg) | change in body temperature (Body temperature in rats) | Mean LLR score (B) 8-OH-DPAT 1 mg/kg (Sprague Dawley rats [2]; VEH pretreatment + 8-OH-DPAT 1 mg/kg) | behavioural score FBP (B) 8-OH-DPAT (Sprague Dawley rats [3]) | behavioural score FT (B) 8-OH-DPAT (Sprague Dawley rats [3]) | change in body temperature (Body temperature in mice; 8-OH-DPAT 5 mg/kg, vs saline group) | Bmax of [3H]8-OH-DPAT ([4]; Zn2+ 0 μM) [pM/mg prot] | Bmax of [3H]8-OH-DPAT ([4]; Zn2+ 10 μM) [pM/mg prot] | Bmax of [3H]8-OH-DPAT ([4]; Zn2+ 10 μM, listed as [^3H]8-OH-DPAT) [pM/mg prot] | Bmax of [3H]8-OH-DPAT ([4]; Zn2+ 100 μM) [pM/mg prot] | Bmax of [3H]8-OH-DPAT ([4]; Zn2+ 500 μM) [pM/mg prot] | Bmax of [3H]8-OH-DPAT ([4]; Zn2+ 1000 μM) [pM/mg prot] |
| --- | --- | --- | --- | --- | --- | --- | --- | --- | --- | --- | --- | --- | --- | --- | --- | --- | --- | --- | --- | --- |
| COc1ccccc1N1CCN(CCN(C(=O)C2CCCCC2)c2ccccn2)CC1 [WAY-100635, N-[2[4-(2-methoxyphenyl)-1-piperazinyl]ethyl]-N-(2-pyridyl)cyclohexanecarboxamide, reference compound] | antagonized the Zn-induced decrease in the immobility time | did not change the behaviour of the animals | 0.67±0.76 | 0.0±0.0 | blocked the LLR induced by 8-OH-DPAT | did not evoke LLR | abolished the effect induced by Zn | – | – | – | – | – | – | – | – | – | – | – | – | – |
| CCCN(CCC)C1CCc2cccc(O)c2C1 (stereo not drawn) [8-OH-DPAT, 8-Hydroxy-2-(di-n-propylamino)tetralin, reference compound] | – | – | – | – | – | induced LLR | – | not 0.1 mg/kg (p>0.05) decreased the immobility time | decreased the immobility time | significant decrease in body temperature | 2.25±0.46 | 7.83±0.7 | 7.5±0.6 | significant decrease in body temperature | – | – | – | – | – | – |
| CCCN(CCC)C1CCc2cccc(O)c2C1 (stereo not drawn) [[^3H]-8-OH-DPAT] | – | – | – | – | – | – | – | – | – | – | – | – | – | – | 4.5±0.3 | 5.8±0.7 | 5.8±0.7 | 6.2±2.0 | 4.7±0.7 | 4.0±0.6 |
